Measured values published in patent US6780421B1, “Adjuvant for a vaccine composition” (priority 1997, dated 2004).

Experiments:
[1] = test system: strain A/Singapore monovalent influenza vaccine; test: Immunization by combined subcutaneous and intranasal administration; format: in vivo, BALB/c mice
Protocol: Two groups of 4 BALB/c mice are immunized twice with an interval of 4 weeks with, on each occasion, the following vaccine compositions:
Group 3 (G3):—a vaccine composition of 300 μl injected subcutaneously comprising 4 μg of HA (in the form of strain A/Singapore monovalent influenza vaccine) combined with […] of DC chol (in the form of DC chol/DOPC liposomes), and
a vaccine composition of 50 μl administered intranasally comprising 0.25 μg of HA (in the form of strain A/Singapore monovalent influenza vaccine) combined with 6 μg of DC chol (in the form of DC chol/DOPC liposomes),
Group 4 (G4):—a vaccine composition of 300 μl injected subcutaneously comprising 4 μg of HA combined with 200 μg of DC chol, and
a vaccine composition of 50 μl administered intranasally comprising 0.25 μg of HA combined with 200 μg of DC chol.
The sera of the immunized mice are sampled 3 weeks after the booster administration and, for each mouse, the level of neutralizing antibodies is assayed by the HAI haemagglutination inhibition technique.

[2] = test system: strain A/Singapore monovalent influenza vaccine; test: Induction of antibody isotypes IgG1 and IgG2 (ELISA) in adult mice; format: in vivo, 8- to 10-week-old female BALB/c adult mice; conditions: 400 μg of DC chol with DOPC
[3] = test system: strain A/Singapore monovalent influenza vaccine; test: Induction of antibody isotypes (ELISA) in elderly mice; format: in vivo, 20 to 22-month-old mice; conditions: primary and secondary response
Protocol: The same experiment is carried out exactly as in Example 12 but, in this instance, the mice tested are 20 to 22-month-old mice which are more difficult to stimulate.

[4] = test system: influenza virus (Strain A/Singapore); test: Anti-HA antibody titration by inhibition of influenza virus-induced haemagglutination after subcutaneous immunization; format: in vivo, Balb/c mice; conditions: 5 μg of HA, in comparison with mice which received the vaccine without adjuvant (Group A)
Protocol: 5 groups of 4 Balb/c mice are immunized by 3 subcutaneous injections performed on D0, D21 and D36 with the following vaccine compositions:
Group A: 0.3 ml of diluted strain A/Singapore monovalent influenza vaccine containing 5 μg of HA in 0.3 ml of PBS,
Group B: 0.3 ml of vaccine composition obtained according to Example 2,
Group C: 0.3 ml of vaccine composition obtained according to Example 3,
Group D: 0.3 ml of vaccine composition obtained according to Example 6,
Group E: 0.3 ml of vaccine composition obtained according to Example 7.
In order to perform the assays for neutralizing antibodies, the sera of mice are sampled on D21, D36 and […], and the titration of anti-HA antibodies is performed by means of the technique of inhibition of influenza virus-induced haemagglutination.
The titres of neutralizing antibodies in the mouse sera are presented in the form of log2 of the highest dilution inducing haemagglutination inhibition.

[5] = test system: strain A/Singapore monovalent influenza vaccine; test: Immune response (HAI) as a function of the dose of DC chol; format: in vivo, female Balb/c mice; conditions: DC chol/DOPC liposomes, injected D0 and D28, sera D42
[6] = test system: trivalent influenza vaccine comprising strain A/Texas, strain B/Panama and strain A/Beijing; test: Tests with a trivalent influenza vaccine; format: in vivo

With `CC(C)CCC[C@@H](C)[C@H]1CC[C@H]2[C@@H]3CC=C4C[C@@H](OC(=O)NCCN(C)C)CC[C@]4(C)[C@H]3CC[C@]12C` [DC chol, 3β-[N-(N′,N′-dimethylaminoethane)-carbamoyl]cholesterol] the “number of cells secreting IgG and IgA in the lungs (ELISPOT): dose effect” value ([1]; 6 versus 200 μg of DC chol) was “identical dose effect”, the “ratio of specific IgG (or IgA) to total IgG (or IgA) in nasopharyngeal lavage fluids: dose effect” value ([1]; 6 versus 200 μg of DC chol) was “identical dose effect” and the “serum IgG measured by ELISA: dose effect” value ([1]; 6 versus 200 μg of DC chol) was “identical dose effect”. For the same molecule, the “level of neutralizing antibodies (HAI): effect of the dose of DC chol” value ([1]; dose of DC chol from 6 to 200 μg, mixed subcutaneous and intranasal) was “enables the immune response to be increased”, the “level of neutralizing antibodies (HAI): adjuvant effect” value ([1]; mixed subcutaneous and intranasal administration) was “adjuvant effect” and the “IgG2a produced (ELISA)” value [2] was “large increase”. The “adjuvant effect on IgG1 and IgG2 produced (ELISA)” value ([2]; primary and secondary response, in comparison to aluminium hydroxide) was “adjuvant effect”, the “adjuvant effect on IgG1 and IgG2 produced (ELISA), in particular IgG2a” value [3] was “adjuvant effect” and the “level of anti-HA antibodies (HAI)” value [4] was “markedly higher”. The “dose of DC chol at which the maximum benefit of the adjuvant effect is obtained (HAI titre)” value [5] was “above 100 μg of DC chol/dose” and the “adjuvant power with trivalent influenza vaccine” value [6] was “adjuvant power”.
